Laboratory results reported in patent US20260374739A1, “SMALL MOLECULAR WEIGHT CHEMICAL COMPOUND TO ANTAGONIZE EPH-EPHRIN TETRAMERIZATION AND INHIBIT BIDIRECTIONAL SIGNALING” (THE BOARD OF REGENTS OF THE UNIVERSITY OF TEXAS SYSTEM, priority 2022, published 2026).
Where “and” joins values, the source holds several entries; their conditions need not be identical. Equal entries are not always repeated. Where two headings read alike, the source gives them in different places.

Tests used:
EphrinB2-EphB2 = target: T1, EphrinB2-EphB2 (Homo sapiens, UniProt P29323); test: Octet tetramerization inhibition, immobilized human EphrinB2 binding to 50 nM soluble human EphB2
T1 construct: soluble human EphB1-His, EphB2-His, and EphB4-His ectodomains; commercially available human EphrinB1-Fc (EB1), EphrinB2-Fc (EB2), and EphrinB3-Fc (EB3) ectodomain proteins; purchased
T1 sequence (P29323 19-543 limits assumed): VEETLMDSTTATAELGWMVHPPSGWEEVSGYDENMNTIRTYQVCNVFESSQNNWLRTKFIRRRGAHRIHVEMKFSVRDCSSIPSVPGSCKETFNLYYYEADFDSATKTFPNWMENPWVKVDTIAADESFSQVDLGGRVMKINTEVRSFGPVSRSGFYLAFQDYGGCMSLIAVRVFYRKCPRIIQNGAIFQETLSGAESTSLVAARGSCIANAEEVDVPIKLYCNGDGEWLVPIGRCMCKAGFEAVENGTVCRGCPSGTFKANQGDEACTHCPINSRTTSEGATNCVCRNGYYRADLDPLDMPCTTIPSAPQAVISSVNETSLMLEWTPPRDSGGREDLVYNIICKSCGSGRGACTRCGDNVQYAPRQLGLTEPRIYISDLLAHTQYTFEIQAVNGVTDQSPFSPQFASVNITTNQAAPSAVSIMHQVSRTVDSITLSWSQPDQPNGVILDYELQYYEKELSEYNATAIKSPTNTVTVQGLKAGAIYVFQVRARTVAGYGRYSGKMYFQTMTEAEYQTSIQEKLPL

EphrinB2-EphB1 = target: T2, EphrinB2-EphB1 (Homo sapiens, UniProt P54762); test: Octet 80 sec association/500 sec dissociation, immobilized human EphrinB2-Fc binding to soluble human EphB1-His; conditions: for inhibition: highest dose, typically 3.2 μM; for EphB1 Inhibition Percent, Inhibition of Association-Dissociation: at 3.2 μM and 580 seconds; for EphB1 Inhibition Percent, Inhibition of Association-Dissociation / EphB1 Inhibition Percent, Inhibition of Association ONLY: immobilized human EphrinB2, 25 nM soluble human EphB1; for EphB1 Inhibition Percent, Inhibition of Association ONLY: at 3.2 μM and 80 seconds
T2 construct: soluble human EphB1-His, EphB2-His, and EphB4-His ectodomains; commercially available human EphrinB1-Fc (EB1), EphrinB2-Fc (EB2), and EphrinB3-Fc (EB3) ectodomain proteins; purchased
T2 sequence (P54762 18-540 limits assumed): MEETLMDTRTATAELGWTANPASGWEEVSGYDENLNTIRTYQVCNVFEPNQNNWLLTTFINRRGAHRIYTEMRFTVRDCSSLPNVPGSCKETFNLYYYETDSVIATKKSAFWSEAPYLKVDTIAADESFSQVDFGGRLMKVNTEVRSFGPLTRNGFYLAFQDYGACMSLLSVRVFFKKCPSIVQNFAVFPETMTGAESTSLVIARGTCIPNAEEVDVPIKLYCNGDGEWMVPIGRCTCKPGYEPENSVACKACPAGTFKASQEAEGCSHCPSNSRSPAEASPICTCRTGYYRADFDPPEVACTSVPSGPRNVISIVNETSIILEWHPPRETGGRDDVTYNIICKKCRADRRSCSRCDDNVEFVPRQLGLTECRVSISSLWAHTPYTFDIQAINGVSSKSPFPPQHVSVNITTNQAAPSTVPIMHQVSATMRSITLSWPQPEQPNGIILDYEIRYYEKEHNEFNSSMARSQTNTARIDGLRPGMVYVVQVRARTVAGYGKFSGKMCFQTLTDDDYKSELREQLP
Procedure, shortened: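 EphrinB2-Fc captured on AHC biosensors, then soluble His-tagged EphB ectodomain (25 nM for % inhibition runs) associated 80 s and dissociated 500 s in PBS, 0.05% Tween-20, 1% DMSO ± compound. Compounds tested at 0.1–3.2 μM with a 10 μM max standard; IC50 from AUC of full traces or at 75 s and 135 s.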

[1] = Absolute AUC/IC50, Table A, EphrinB2-EphB2
[2] = Absolute Association IC50 (300 sec), Table A, EphrinB2-EphB2
[3] = Absolute Dissociation IC50 (450 sec), Table A, EphrinB2-EphB2
[4] = Relative Association IC50 (300 sec), Table A, EphrinB2-EphB2
[5] = Relative Dissociation IC50 (450 sec), Table A, EphrinB2-EphB2
[6] = tetramerization inhibitor IC50 (relative), association step, surmountable tetramer
[7] = EphB1, 25 nM EphB1, 3.2 μM compound, A20-I as max control, 0* = less than 0, no inhibition, read-out: % Inhibition: Association + Dissociation (160 sec)
[8] = EphB1, 25 nM EphB1, 3.2 μM compound, A20-I as max control, 0* = less than 0, no inhibition, read-out: % Inhibition: Association ONLY (80 sec)
[9] = Relative AUC/IC50, Table A, EphrinB2-EphB2, compound 7: association only

Compound | IC50 (EphrinB2-EphB2; [1]) | IC50 (EphrinB2-EphB2; [2]) | IC50 (EphrinB2-EphB2; [3]) | IC50 (EphrinB2-EphB2; [4]) | IC50 (EphrinB2-EphB2; [5]) | IC50 (EphrinB2-EphB2; [6]) | IC50 (EphrinB2-EphB2; [9]) | EphB1 Inhibition Percent, Inhibition of Association-Dissociation (EphrinB2-EphB1) | EphB1 Inhibition Percent, Inhibition of Association ONLY (EphrinB2-EphB1) | other results
Oc1c(Cl)cc(CN2CCOCC2)c2cccnc12 [Compound 3, 7-chloro-5-(morpholinomethyl)quinolin-8-ol] | 2400 nM | 2340 nM | 1700 nM | 1120 nM | 1050 nM | ~500 nM | – | – | – | inhibition at 3.2 µM (EphrinB2-EphB1; [7]): 48.4%; inhibition at 3.2 µM (EphrinB2-EphB1; [8]): 34.2%
Oc1c(Br)cc(CN2CCN(c3ccc(Br)cc3)CC2)c2cccnc12 [Compound 28, 7-bromo-5-((4-(4-bromophenyl)piperazin-1-yl)methyl)quinolin-8-ol] | 360 nM and 530 nM and 590 nM and 510 nM | 380 nM and 580 nM and 680 nM and 780 nM | 350 nM and 400 nM and 580 nM and 630 nM | 300 nM and 330 nM (2×) and 400 nM | 300 nM and 420 nM and 370 nM | ~300 nM | 220 nM and 370 nM and 230 nM and 320 nM | – | – | inhibition of unsurmountable tetramer (EphrinB2-EphB2): 100%; disruption of unsurmountable tetramer (EphrinB2-EphB2; 0.8-3.2 μM): complete loss of this structure at 3.2 μM; IC50 (EphrinB2-EphB2; tetramerization inhibitor IC50, surmountable tetramer): ~300 nM; % Inhibited (AUC), Association + Dissociation (EphrinB2-EphB1; EphB1, 0-160 sec, 50 nM, 10 μM compound, Table 4): 38.6%; % Inhibited (AUC), Association (EphrinB2-EphB1; EphB1, 50 nM, 10 μM compound, Table 4): 24.7%; IC50 (EphrinB2-EphB1; EphB1, Association (75″), read-out: Absolute IC50): > 3200 nM; IC50 (EphrinB2-EphB1; EphB1, Association (75″), read-out: Relative IC50): 100 nM; IC50 (EphrinB2-EphB1; EphB1, Association (AUC), read-out: Absolute IC50): > 3200 nM; IC50 (EphrinB2-EphB1; EphB1, Association (AUC), read-out: Relative IC50): 100 nM; IC50 (EphrinB2-EphB1; EphB1, Dissociation (135″), read-out: Absolute IC50): 360 nM; IC50 (EphrinB2-EphB1; EphB1, Dissociation (135″), read-out: Relative IC50): 80 nM; IC50 (EphrinB2-EphB1; EphB1, Full AUC, read-out: Absolute IC50): 500 nM; IC50 (EphrinB2-EphB1; EphB1, Full AUC, read-out: Relative IC50): 170 nM; inhibition (EphrinB2-EphB1; EphB1, read-out: Association (% Inhibited (AUC))): 39.1%; inhibition (EphrinB2-EphB1; EphB1, read-out: Association + Dissociation (% Inhibited (AUC))): 53.1%
Oc1c(Br)cc(CN2CCOCC2)c2cccnc12 [Compound 5, 7-bromo-5-(morpholinomethyl)quinolin-8-ol] | – | – | – | – | – | ~500 nM | – | – | – | IC50 (EphrinB2-EphB2; absolute IC50, association, dissociation and AUC, A20 salt): ~1000 nM and 1000 nM; IC50 (EphrinB2-EphB2; effective/relative IC50, A20 salt): < 1000 nM; association slope (EphrinB2-EphB2; in presence of A20, role: inhibitor, 20° without): 10 °; IC (maximum) (EphrinB2-EphB2; read-out: concentration producing maximum inhibition): 1 µM; inhibition at 1 µM (EphrinB2-EphB2; read-out: reduction of association response): ~50%; inhibition at 3.2 µM (EphrinB2-EphB1; [7]): 45.2%; inhibition at 3.2 µM (EphrinB2-EphB1; [8]): 25.1%
O=[N+]([O-])c1cc(CN2CCOCC2)c2cccnc2c1O [Compound 10, 4-((8-hydroxy-7-nitroquinolin-1-ium-5-yl)methyl)morpholin-4-ium chloride] | > 1600 nM | > 1600 nM | > 1600 nM | > 1600 nM | > 1600 nM | – | > 1600 nM | 23.1% and 14.2% and 20.2% | – | % Inhibition: Association + Dissociation (160 sec) (EphrinB2-EphB1; EphB1, 25 nM EphB1, 3.2 μM compound, A20-I as max control, 0* = less than 0, no inhibition, listed as A19-NO2 (B)): 14.2%
COCc1cc(CN2CCN(C)CC2)c(O)c2ncccc12 [Compound 77, 5-(methoxymethyl)-7-((4-methylpiperazin-1-yl)methyl)quinolin-8-ol, reference compound] | – | – | – | – | – | – | – | 35.0% | 16.9% | –
O=S1(=O)CCN(Cc2ccc(O)c3ncccc23)CC1 [Compound 15, 4-((8-hydroxyquinolin-1-ium-5-yl)methyl)thiomorpholin-4-ium 1,1-dioxide chloride] | > 1600 nM | > 1600 nM | > 1600 nM | > 1600 nM | 1150 nM | – | 620 nM | 28.6% | 16.8% | –
Oc1ccc(CN2CCCCC2)c2cccnc12 [Compound 68, 5-(piperidin-1-ylmethyl)quinolin-8-ol, reference compound] | – | – | – | – | – | – | – | 46.8% | 28.3% | –
Oc1ccc(CN2CCOCC2)c2cccnc12 [Compound 1, 5-(morpholinomethyl)quinolin-8-ol] | > 1600 nM | > 1600 nM | > 1600 nM | > 1600 nM | > 1600 nM | > 1600 nM | > 1600 nM | – | – | tetramerization inhibitor activity (EphrinB2-EphB2): only weak ability to inhibit formation of the EB2-EphB2 tetramer
Oc1c(CN2CCCCC2)cc(Cl)c2cccnc12 [Compound 76, 5-chloro-7-(piperidin-1-ylmethyl)quinolin-8-ol, reference compound] | – | – | – | – | – | – | – | 51.5% and 43.1% | – | –
